US10683326B2, “Crystalline salt forms” (Stealth BioTherapeutics Corp., priority 2016, dated 2020)
Structures can show the parent of a compound that is named as a salt. Where a SMILES comes first, the peptide text is derived from it. [ ]: non-standard residue; d: D form. Dmt = Cc1cc(O)cc(C)c1C[C@H](N)C(=O)O

Assays:
[1] = counterion acid; cited from earlier work
[2] = 7-day stability testing (40° C./75% RH, 80° C., ambient temperature and light), XRPD and HPLC; format: physicochemical; details: 7 days
Procedure: (§1) Approximately 30 mg of the tosylate and fumarate salts were subjected to 7-day stability testing under the following conditions: • 40° C./75% RH • 80° C. • Ambient temperature and light After 7 days under the stated conditions, XRPD and HPLC analysis was carried out on the resultant solid material. Salt Disproportionation Studies
as §1, with “light •” for “light”, “Hydration” for “Salt Disproportionation”
The scaled-up tosylate and fumarate salts were subjected to 7-day stability testing at 40° C./75% RH, 80° C. and ambient temperature and light.

[3] = Dynamic Vapor Sorption (DVS); format: physicochemical; details: for change in mass (DVS): between 20-90% RH
Procedure: Approximately 10 mg of sample was placed into a mesh vapor sorption balance pan and loaded into a DVS-1 dynamic vapor sorption balance by Surface Measurement Systems. The sample was subjected to a ramping profile from 40-90% relative humidity (RH) at 10% increments, maintaining the sample at each step until a stable weight had been achieved (99.5% step completion). After completion of the sorption cycle, the sample was dried using the same procedure to 0% RH and then a second sorption cycle back to 40% RH. The weight changes during the sorption/desorption cycles were plotted, allowing the hygroscopic nature of the sample to be determined. XRPD analysis was then carried out on the remaining solid.

[4] = Salt disproportionation studies (slurry in deionized water, pH and XRPD); format: physicochemical; details: 20° C.
Procedure: The scaled-up tosylate and fumarate salts were subjected to salt disproportionation studies at ambient temperature. The following observations and results were obtained during these disproportionation studies: • After stirring the tosylate salt at 20° C. in deionized water for 30 min, pH=2.58.

[5] = Hydration studies in IPA/water at 3 water activities, XRPD; format: physicochemical
physchem = test: physchem
Procedure: 25 mL of 0.2 M potassium hydrogen phthalate solution and 2.50 mL of 0.2 M sodium hydroxide solution were diluted to 100 mL using deionized water. The pH was adjusted as required, using either potassium hydrogen phthalate or sodium hydroxide solution.
25 mL of 0.2 M potassium phosphate monobasic solution and 11.20 mL of 0.2 M sodium hydroxide solution were diluted to 100 mL using deionized water. The pH was adjusted as required, using either potassium phosphate monobasic or sodium hydroxide solution.

[6] = Primary salt screen: stability testing of crystalline hits for 72 hours at 40° C./75% RH, post-stability XRPD and HPLC
Procedure: The primary salt screen was carried out on 35 mg scale in a glovebag under nitrogen using >3 equivalents of the counterions in the appropriate solvent. The contents of the vials were temperature cycled from 30 to 5° C. Any solids were isolated and analyzed by XRFD. • Approximately 35 mg of received material was weighed into each vial, in a glovebag under nitrogen. If amorphous material or counterion isolated, material was returned to vial and solids re-dissolved through addition of an appropriate solvent. Further temperature cycling was then employed, followed by anti-solvent addition and evaporation if required. Solids, if present, were isolated by centrifugation and analyzed by XRPD.

[7] = counterion acid; cited from earlier work; remark: listed apart in the source
[8] = 40° C./75% RH, listed as tosylate
[9] = 40° C./75% RH, listed as fumarate

Structure (SMILES): O=C(O)CCCCC(=O)O [Adipic]
- LogP [1]: 0.08

Structure (SMILES): O=C(O)C(=O)O [Oxalic]
- LogP [1]: −1.19

Structure (SMILES): Cc1cc(O)cc(C)c1C[C@H](NC(=O)[C@H](N)CCCNC(=N)N)C(=O)N[C@@H](CCCCN)C(=O)N[C@@H](Cc1ccccc1)C(N)=O [Tosylate Pattern 1] (H-[dR][Dmt]KF-NH2)
- Post-stability XRPD analysis ([2]; 40° C./75% RH, 80° C. and ambient temperature and light): unchanged
- Purity by HPLC [2, 8]: 98.5%
- decrease in purity after stability testing [2, 8]: ca. 1.3%
- Purity by HPLC ([2]; 80° C., listed as Tosylate): 99.4%
- change in mass (DVS) ([3]; listed as tosylate salt): ca. 1.3%
- Post-DVS XRPD analysis ([3]; listed as tosylate salt): remained Pattern 1
- hygroscopicity by DVS analysis ([3]; listed as tosylate salt): slightly hygroscopic
- pH of slurry ([4]; 30 min, listed as tosylate salt): 2.58
- XRPD analysis of the post-slurry material ([4]; 20 h, listed as tosylate salt): no change to the input Pattern 1 material
- pH of slurry ([4]; 20 h, listed as tosylate salt): 2.53
- XRPD analysis of the isolated solids after hydration studies ([5]; aw=0.368, 0.608 and 0.911, 20° C., 25 h): unchanged
- solubility thermodynamic at 24 h (physchem; aqueous buffer pH 1.2, pH 1.2, Concentration by HPLC (thermodynamic solubility), buffer pH 1.2, 20° C., 24 h): 23.8 mg/mL
- solubility at 24 h (physchem; aqueous buffers pH 1.2, 4.5 and 6.8): ~25 mg/mL
- Solid Form isolated after solubility study (physchem; buffer pH 1.2, 20° C., 24 h, listed as Tosylate): Pattern 1
- Solid Form isolated after solubility study (physchem; buffer pH 4.5, 20° C., 24 h): Pattern 1
- Solid Form isolated after solubility study (physchem; buffer pH 6.8, 20° C., 24 h): Pattern 1
- XRPD analysis of the isolated solids after thermodynamic solubility studies (physchem; each buffer solution (pH 1.2, 4.5, 6.8), 20° C., 24 h): unchanged
- XRPD analysis of samples after stability testing ([6]; 40° C./75% RH, 72 hours): improved in crystallinity
- purity by HPLC analysis of samples after stability testing ([6]; 40° C./75% RH, 72 hours): 80.6%
- Purity by HPLC (post-stability) ([6]; 72 hours at 40° C./75% RH): 80.6
- Same XRPD, post-stability ([6]; 72 hours at 40° C./75% RH, P1 = Pattern 1): yes

Structure (SMILES): O=C(O)c1ccc2ccccc2c1O [1-Hydroxy-2-naphthoic]
- LogP [1]: 3.29

Structure (SMILES): CCS(=O)(=O)O [Ethanesulfonic acid]
- LogP [1]: −1.36

Structure (SMILES): C[C@H](CCC(=O)O)[C@H]1CC[C@H]2[C@@H]3CC[C@@H]4C[C@H](O)CC[C@]4(C)[C@H]3C[C@H](O)[C@]12C [Deoxycholic acid]
- pKa 1 [7]: 4.76

Structure (SMILES): O=C[C@H](O)[C@@H](O)[C@H](O)[C@H](O)C(=O)O [D-Glucuronic acid]
- LogP [1]: −1.49

Structure (SMILES): CCCCCCCCCCCC(=O)O [Lauric]
- pKa 1 [7]: 4.90
- LogP [1]: 4.6

Structure (SMILES): N[C@@H](CCC(=O)O)C(=O)O [L-Glutamic acid]
- LogP [1]: −1.43

Structure (SMILES): CC(C)CCC[C@@H](C)[C@H]1CC[C@H]2[C@@H]3CC=C4C[C@@H](OS(=O)(=O)O)CC[C@]4(C)[C@H]3CC[C@]12C [Cholesteryl sulfate]
- LogP [1]: 4.45

Structure (SMILES): O=C(O)/C=C\C(=O)O [Maleic]
- LogP [1]: −0.01

Structure (SMILES): Cc1ccc(S(=O)(=O)O)cc1 [p-Toluenesulfonic acid]
- LogP [1]: 0.93

Structure (SMILES): Cc1cc(O)cc(C)c1C[C@H](NC(=O)[C@H](N)CCCNC(=N)N)C(=O)N[C@@H](CCCCN)C(=O)N[C@@H](Cc1ccccc1)C(N)=O [Fumarate Pattern 4] (H-[dR][Dmt]KF-NH2)
- Purity by HPLC [2, 9]: 97.5%
- decrease in purity after stability testing [2, 9]: ca. 2.4%
- Post-stability XRPD analysis ([2]; 80° C.): loss of crystallinity
- decrease in purity after stability testing ([2]; 80° C.): ca. 17%
- Purity by HPLC ([2]; 80° C., listed as Fumarate): 83.0%
- Purity by HPLC ([2]; ambient temperature and light): 99.6%
- Post-stability XRPD analysis ([2]; lower temperatures: 40° C./75% RH or ambient conditions): unchanged
- change in mass (DVS) ([3]; listed as fumarate salt): ca. 11.5%
- Post-DVS XRPD analysis ([3]; listed as fumarate salt): remained Pattern 4
- hygroscopicity by DVS analysis ([3]; listed as fumarate salt): hygroscopic
- pH of slurry ([4]; 30 min, listed as fumarate salt): 3.50
- XRPD analysis of the post-slurry material ([4]; 20 h, listed as fumarate salt): changed to a new pattern (designated Pattern 5)
- pH of slurry ([4]; 20 h, listed as fumarate salt): 3.48
- XRPD analysis of the isolated solids after hydration studies ([5]; aw=0.368 and 0.608, 20° C., 24 h): Pattern 3
- XRPD analysis of the isolated solids after hydration studies ([5]; aw=0.911, 20° C., 24 h): Pattern 5
- Solid Form isolated after solubility study (physchem; buffer pH 1.2, 20° C., 24 h, listed as Fumarate): Fumaric acid
- Solid Form isolated after solubility study (physchem; buffer pH 1.2, 20° C., 24 h, listed as fumarate salt): fumaric acid only
- Solid Form isolated after solubility study (physchem; buffer pH 4.5, 20° C., 24 h, listed as fumarate salt): Pattern 5
- Solid Form isolated after solubility study (physchem; buffer pH 6.8, 20° C., 24 h, listed as fumarate salt): No solid was isolated

Structure (SMILES): O=C(O)C[C@H](O)C(=O)O [L-Malic]
- LogP [1]: −1.26
